Drawing on PubChem BioAssay (NCI), this text covers GI50 and TGI for twelve compounds.

What all share (experiment): NCI tumour cell line growth inhibition, 48 h
Assay [1] relates to SW-620 colon.
Assay [2] deals with MDA-MB-435.
Assay [3] concerns UACC-62 melanoma.
In assay [4] the test system is UO-31 renal.
The test system of assay [5] is SF-295 CNS.
For assay [6], the system named is EKVX NSCLC.
Assay [7] concerns SNB-19 CNS.
Assay [8] deals with SNB-75 CNS.
In assay [9] the test system is HCC-2998 colon.
Assay [10] concerns SR leukemia.

Values joined by “and” are separate entries in the source; they are usually repeats but may differ in a detail not shown here. Equal entries are not always repeated.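 Grown in 96-well plates, cells were treated for 48 hours with each compound at five concentrations. Insufficient inhibition: endpoint recorded as highest concentration tested. The concentration for 50% growth inhibition is given as GI50. At the TGI there is no net growth.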

As to `COC(=O)c1ccc(NC(=O)c2ccc(NC3=C(Cl)C(=O)N(Cc4ccccc4)C3=O)cc2)cc1`, the GI50 in assay [1] was 15.1 µM; in assay [2] it was 12.3 µM; in [3], 18.7 µM; in assay [4] it was 17.9 µM; in [5], 10.2 µM; in [6], 45.4 µM. Further, the GI50 in assay [7] is 16.5 µM; in [8], 28.8 µM. For the same compound, the TGI in [1] is 33 µM; in assay [2] it was 27 µM; in assay [3], 37.1 µM; in [4] it was 31.7 µM; in assay [5], 22 µM; in assay [6], over 100 µM. Moreover, the TGI in assay [7] is 30.4 µM; in assay [8] it was 64.4 µM.

For the compound `COc1ccc2c(CCCc3ccc(Cl)cc3Cl)c3[n+](cc2c1OC)CCc1cc2c(cc1-3)OCO2`, the GI50 was 0.383 µM in assay [1]; 0.322 µM in assay [2]; 0.284 µM in assay [3]; 0.638 µM in [9]; 1.58 µM in [4]; 0.467 µM in assay [6]. Further, the TGI in assay [1] turned out to be 1.58 µM; in [2] it was 1.31 µM; in assay [3] it was 1.38 µM; in assay [9] it was 1.95 µM; in [4], 3.08 µM; in assay [6] it was 1.99 µM.

As to `N#CC(C(=N/O)/C(=N\O)C(C#N)c1ccccc1)c1ccccc1` (configuration not stated), the TGI in assay [1], in assay [3], in assay [9], in assay [4], in assay [5] and in [6] was over 100 µM each time. Further, the TGI in assay [7] and in assay [8] was over 100 µM in each case.

Take `O=[N+]([O-])c1ccc(C2SCc3nc4ccccc4n32)cc1` (configuration not stated): the TGI in assay [1], in assay [10], in [3], in assay [4], in assay [5] and in [6] was over 100 µM throughout. The TGI in assay [7] was over 100 µM.

As to `O=C(O)/C(Cl)=C(Cl)/C=N/NC(=O)c1cc2ccccc2cc1O`, the TGI is over 100 µM in [1]; 39.3 µM in assay [10]; 14.6 µM in assay [3]; 6.36 µM in [4]; over 100 µM in assay [5]; over 100 µM in assay [6]. The TGI in assay [7] and in assay [8] was over 100 µM in each case.

Consider `CC(=O)[CH-]C(=O)c1ccccc1.CC(=O)[CH-]C(=O)c1ccccc1.CC[C@H](/C=C/C(C)[C@H]1CCC2[C@@H]3CC=C4C[C@@H]([O-])CC[C@]4(C)C3CC[C@@]21C)C(C)C.CC[C@H](/C=C/C(C)[C@H]1CCC2[C@@H]3CC=C4C[C@@H]([O-])CC[C@]4(C)C3CC[C@@]21C)C(C)C.Cl.[Ti+4]` (some centres not stated), for which the GI50 in assay [1], in assay [3], in assay [9], in assay [4], in assay [5] and in assay [6] was over 25 µM in each case. Moreover, in [7], the GI50 was over 25 µM. Further, the TGI in assay [1], in assay [3], in assay [9], in assay [4], in assay [5] and in [6] was over 25 µM each time. The TGI in [7] was over 25 µM.

In the case of `COc1ccc(/C=C\c2cc(OC)c(OC)c(OC)c2)cc1OC(=O)CC(N)C(=O)O` (configuration not stated), the GI50 in [1] was 0.000318 µM; in assay [3] it was 0.000354 µM; in assay [9], 0.0951 µM; in [4] it was 0.0017 µM; in assay [5], 0.000726 µM; in [7] it was 0.000909 µM. Besides, the GI50 in assay [8] is 0.00286 µM. Moreover, the TGI was over 100 µM in assay [1]; 0.000316 µM in assay [2]; over 100 µM in [3]; over 100 µM in assay [9]; 58.6 µM in assay [4]; 0.00305 µM and 0.00613 µM in assay [5]. Also, in [6], the TGI was over 100 µM.

Turning to `O=C1NC2C3CC(OCc4ccccc4)(OCc4ccccc4)C2OC3O1` (configuration not stated), the TGI in assay [1], in assay [3], in assay [9], in assay [4], in assay [5] and in [8] was over 50 µM throughout.

`CCn1cc(C(=O)N/N=C/c2cccs2)c(=O)c2cc(F)c(N3CCNC(C)C3)c(F)c21` (configuration not stated): the GI50 in [1] is 1.71 µM; in assay [2], 1.78 µM; in assay [3], 1.61 µM; in [9], 1.8 µM; in assay [4], 1.52 µM; in assay [5], 1.85 µM. Besides, the GI50 in [6] was 1.47 µM; in [7], 1.61 µM; in assay [8], 1.47 µM. For the same compound, the TGI worked out at 3.17 µM in assay [1]; 3.24 µM in assay [2]; 2.96 µM in assay [3]; 3.44 µM in [9]; 2.96 µM in assay [4]; 3.45 µM in [5]. In addition, the TGI in [6] stood at 2.93 µM; in assay [7], 2.96 µM; in [8] it was 2.83 µM.

As for `C=CC(=O)Nc1ccccc1CC(c1c[nH]c2ccccc12)c1c[nH]c2ccccc12`, the TGI in assay [1] was found to be 39.2 µM; in [3] it was 31.2 µM; in assay [9] it was 33.4 µM; in assay [4] it was 31.7 µM; in assay [5] it was 49.1 µM; in [6] it was 51 µM. Further, the values for the TGI in assay [7] and in assay [8] were 31.8 µM and 28.4 µM, respectively.

In the case of `COc1cc2c3c(n([C@@H]4CCOC4)c(=O)c2cc1OC)-c1cc2c(cc1C3=O)OCO2`, the GI50 in [1], in [4], in [5] and in assay [7] was under 0.01 µM each time. The TGI in [1] is over 100 µM; in assay [4], over 100 µM; in assay [5], 0.0219 µM; in assay [7] it was over 100 µM.

On to `O=C1c2ccn(CCCNC(CO)(CO)CO)c2C(=O)c2c1c(O)c1ccccc1c2O`, for which the GI50 in assay [1] is 4.09 µM; in [2], 34.1 µM; in [3], 24.6 µM; in assay [9], 2.52 µM; in assay [4], 13.4 µM; in assay [5] it was 15 µM. Moreover, the GI50 is 49.7 µM in [6], 36.3 µM in assay [7] and over 75.2 µM in assay [8]. Also, the TGI is 18.6 µM in [1]; over 65.4 µM in assay [2]; over 61.3 µM in [3]; 8.2 µM in assay [9]; 30.3 µM in assay [4]; over 49.8 µM in assay [5]. For the same compound, the TGI in assay [6], in assay [7] and in assay [8] was over 100 µM each time.
